# Non-standard residues stand in square brackets, D forms with d. Residues, ends and D or L forms follow the SMILES beside them. Groups on a side chain read outwards from the residue. *: point of attachment. DOTA = O=C(O)CN1CCN(CC(=O)O)CCN(CC(=O)*)CCN(CC(=O)O)CC1; dTyr(3-I) = N[C@H](Cc1ccc(O)c(I)c1)C(=O)O; 2Nal = N[C@@H](Cc1ccc2ccccc2c1)C(=O)O; dNMeOrn = CN[C@H](CCCN)C(=O)O; 4Abz = Nc1ccc(C(=O)O)cc1; dDap = NC[C@@H](N)C(=O)O
# What was measured:
# [1] = system: Jurkat tumor-bearing CB-17 SCID mice; assay: Biodistribution in Jurkat tumor-bearing CB-17 SCID mice; type: in vivo; design: tissue to tissue ratio at 1 h / tissue to tissue ratio / tissue to tissue ratio at 48 h: reference not given here; settings: for Calculated tumor retention 6 h compared to the 1 h-value / Calculated tumor retention 48 h compared to the 1 h-value: mouse, in vivo
# Summary of the method: (§1)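 Radioligand (125I, 177Lu, 99mTc, 18F or 68Ga label; roughly 0.5-20 MBq, 0.02-0.20 nmol) was injected intravenously via tail vein. Hosts were CB17-SCID mice with subcutaneous Jurkat tumors of 5-8 mm, 4-10 weeks post-inoculation. Dissected organs were weighed and counted in a γ-counter.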
# [2] = as above; type: in vivo; design: tissue to tissue ratio at 1 h / tissue to tissue ratio / tissue to tissue ratio at 48 h: reference not given here; settings: CB-17 SCID, mouse, in vivo, iv, total radioactivity
# Summary of the method: as §1
# [3] = system: CXCR4-expressing Chem_1 cells; assay: Determination of internalization, dual tracer with 125I-Fc-131; type: cell-based; settings: of total cellular activity
# Summary of the method: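 Receptor blockade used AMD3100 (1 mM stock) versus medium-treated wells, triplicate per time point, in Chem_1 cells cultured at 37 °C in DMEM-F12/10% FBS. Activity of supernatant, surface-bound and internalized (1 M NaOH) fractions measured by γ-counter, corrected for non-specific uptake and normalised to standard ligand.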
smiles,measurement,setting,value
C[C@@H](NC(=O)[C@@H](CCCNC(=N)N)NC(=O)[C@@H](CN)NC(=O)CN1CCN(CC(=O)O)CCN(CC(=O)O)CCN(CC(=O)O)CC1)C(=O)Nc1ccc(C(=O)NCCC[C@@H]2C(=O)N[C@@H](CCCNC(=N)N)C(=O)N[C@@H](Cc3ccc4ccccc4c3)C(=O)NCC(=O)N[C@H](Cc3ccc(O)cc3)C(=O)N2C)cc1 [CXCR4-DOTA-3 [Lu]] (cyclo([dY][dNMeOrn]([4Abz-dA-dR-dDap-DOTA])R[2Nal]G)),Calculated tumor retention 6 h compared to the 1 h-value,[1],82%
same,Calculated tumor retention 48 h compared to the 1 h-value,[1],65%
same,tissue to tissue ratio,[2],229
same,tissue to tissue ratio at 1 h,[2],9.25
same,tissue to tissue ratio at 48 h,[2],1360
same,tissue uptake at 1 h,[2]; Tumor activity 1 h p.i.,8.42 %ID/g
same,tissue uptake at 6 h,[2]; Tumor activity 6 h p.i.,6.88 %ID/g
same,tissue uptake at 48 h,[2]; Tumor activity 48 h p.i.,5.44 %ID/g
same,tissue uptake at 1 h,"[2]; female, % iD/g Blood",0.91 %ID/g
same,tissue uptake at 6 h,"[2]; female, % iD/g Blood",0.03 %ID/g
same,tissue uptake at 1 h,"[2]; female, % iD/g Bone",0.55 %ID/g
same,tissue uptake at 6 h,"[2]; female, % iD/g Bone",0.28 %ID/g
same,tissue uptake at 48 h,"[2]; female, % iD/g Bone",0.18 %ID/g
same,tissue uptake at 1 h,"[2]; female, % iD/g Heart",0.53 %ID/g
same,tissue uptake at 6 h,"[2]; female, % iD/g Heart",0.09 %ID/g
same,tissue uptake at 48 h,"[2]; female, % iD/g Heart",0.06 %ID/g
same,tissue uptake at 1 h,"[2]; female, % iD/g Intestine",0.44 %ID/g
same,tissue uptake at 6 h,"[2]; female, % iD/g Intestine",0.44 %ID/g
same,tissue uptake at 48 h,"[2]; female, % iD/g Intestine",0.11 %ID/g
same,tissue uptake at 1 h,"[2]; female, % iD/g Kidney",14.1 %ID/g
same,tissue uptake at 6 h,"[2]; female, % iD/g Kidney",13.4 %ID/g
same,tissue uptake at 48 h,"[2]; female, % iD/g Kidney",4.47 %ID/g
same,tissue uptake at 1 h,"[2]; female, % iD/g Liver",8.48 %ID/g
same,tissue uptake at 6 h,"[2]; female, % iD/g Liver",9.43 %ID/g
same,tissue uptake at 48 h,"[2]; female, % iD/g Liver",8.84 %ID/g
same,tissue uptake at 1 h,"[2]; female, % iD/g Lung",1.67 %ID/g
same,tissue uptake at 6 h,"[2]; female, % iD/g Lung",0.25 %ID/g
same,tissue uptake at 48 h,"[2]; female, % iD/g Lung",0.14 %ID/g
same,tissue uptake at 1 h,"[2]; female, % iD/g Muscle",0.18 %ID/g
same,tissue uptake at 6 h,"[2]; female, % iD/g Muscle",0.03 %ID/g
same,tissue uptake at 48 h,"[2]; female, % iD/g Muscle",0.01 %ID/g
same,tissue uptake at 1 h,"[2]; female, % iD/g Pancreas",0.28 %ID/g
same,tissue uptake at 6 h,"[2]; female, % iD/g Pancreas",0.09 %ID/g
same,tissue uptake at 48 h,"[2]; female, % iD/g Pancreas",0.05 %ID/g
same,tissue uptake at 1 h,"[2]; female, % iD/g Spleen",1.55 %ID/g
same,tissue uptake at 6 h,"[2]; female, % iD/g Spleen",1.38 %ID/g
same,tissue uptake at 48 h,"[2]; female, % iD/g Spleen",1.32 %ID/g
same,tissue uptake at 1 h,"[2]; female, % iD/g Stomach",0.94 %ID/g
same,tissue uptake at 6 h,"[2]; female, % iD/g Stomach",0.25 %ID/g
same,tissue uptake at 48 h,"[2]; female, % iD/g Stomach",0.07 %ID/g
same,tissue uptake at 1 h,"[2]; female, % iD/g Tumor",8.42 %ID/g
same,tissue uptake at 6 h,"[2]; female, % iD/g Tumor",6.88 %ID/g
same,tissue uptake at 48 h,"[2]; female, % iD/g Tumor",5.44 %ID/g
C[C@@H](NC(=O)[C@@H](CCCNC(=N)N)NC(=O)[C@@H](CN)NC(=O)CN1CCN(CC(=O)O)CCN(CC(=O)O)CCN(CC(=O)O)CC1)C(=O)Nc1ccc(C(=O)NCCC[C@@H]2C(=O)N[C@@H](CCCNC(=N)N)C(=O)N[C@@H](Cc3ccc4ccccc4c3)C(=O)NCC(=O)N[C@H](Cc3ccc(O)c(I)c3)C(=O)N2C)cc1 [CXCR4-DOTA-4 [Lu]] (cyclo([dTyr(3-I)][dNMeOrn]([4Abz-dA-dR-dDap-DOTA])R[2Nal]G)),Calculated tumor retention 6 h compared to the 1 h-value,[1],126%
same,Calculated tumor retention 48 h compared to the 1 h-value,[1],117%
same,tissue to tissue ratio,[2],156
same,tissue to tissue ratio at 1 h,[2],3.6
same,tissue to tissue ratio at 48 h,[2],362
same,tissue uptake at 1 h,[2]; Tumor activity 1 h p.i.,6.19 %ID/g
same,tissue uptake at 6 h,[2]; Tumor activity 6 h p.i.,7.78 %ID/g
same,tissue uptake at 48 h,[2]; Tumor activity 48 h p.i.,7.23 %ID/g
same,tissue uptake at 1 h,"[2]; female, % iD/g Blood",1.72 %ID/g
same,tissue uptake at 6 h,"[2]; female, % iD/g Blood",0.05 %ID/g
same,tissue uptake at 48 h,"[2]; female, % iD/g Blood",0.02 %ID/g
same,tissue uptake at 1 h,"[2]; female, % iD/g Bone",1.07 %ID/g
same,tissue uptake at 6 h,"[2]; female, % iD/g Bone",0.57 %ID/g
same,tissue uptake at 48 h,"[2]; female, % iD/g Bone",1.47 %ID/g
same,tissue uptake at 1 h,"[2]; female, % iD/g Heart",1.13 %ID/g
same,tissue uptake at 6 h,"[2]; female, % iD/g Heart",0.22 %ID/g
same,tissue uptake at 48 h,"[2]; female, % iD/g Heart",0.21 %ID/g
same,tissue uptake at 1 h,"[2]; female, % iD/g Intestine",0.87 %ID/g
same,tissue uptake at 6 h,"[2]; female, % iD/g Intestine",0.82 %ID/g
same,tissue uptake at 48 h,"[2]; female, % iD/g Intestine",0.28 %ID/g
same,tissue uptake at 1 h,"[2]; female, % iD/g Kidney",14.4 %ID/g
same,tissue uptake at 6 h,"[2]; female, % iD/g Kidney",11.3 %ID/g
same,tissue uptake at 48 h,"[2]; female, % iD/g Kidney",5.31 %ID/g
same,tissue uptake at 1 h,"[2]; female, % iD/g Liver",19.2 %ID/g
same,tissue uptake at 6 h,"[2]; female, % iD/g Liver",20.5 %ID/g
same,tissue uptake at 48 h,"[2]; female, % iD/g Liver",21.7 %ID/g
same,tissue uptake at 1 h,"[2]; female, % iD/g Lung",3.69 %ID/g
same,tissue uptake at 6 h,"[2]; female, % iD/g Lung",0.6 %ID/g
same,tissue uptake at 48 h,"[2]; female, % iD/g Lung",0.47 %ID/g
same,tissue uptake at 1 h,"[2]; female, % iD/g Muscle",0.3 %ID/g
same,tissue uptake at 6 h,"[2]; female, % iD/g Muscle",0.07 %ID/g
same,tissue uptake at 48 h,"[2]; female, % iD/g Muscle",0.05 %ID/g
same,tissue uptake at 1 h,"[2]; female, % iD/g Pancreas",0.52 %ID/g
same,tissue uptake at 6 h,"[2]; female, % iD/g Pancreas",0.16 %ID/g
same,tissue uptake at 48 h,"[2]; female, % iD/g Pancreas",0.24 %ID/g
same,tissue uptake at 1 h,"[2]; female, % iD/g Spleen",4.57 %ID/g
same,tissue uptake at 6 h,"[2]; female, % iD/g Spleen",2.68 %ID/g
same,tissue uptake at 48 h,"[2]; female, % iD/g Spleen",3.63 %ID/g
same,tissue uptake at 1 h,"[2]; female, % iD/g Stomach",1.35 %ID/g
same,tissue uptake at 6 h,"[2]; female, % iD/g Stomach",0.41 %ID/g
same,tissue uptake at 48 h,"[2]; female, % iD/g Stomach",0.23 %ID/g
same,tissue uptake at 1 h,"[2]; female, % iD/g Tumor",6.19 %ID/g
same,tissue uptake at 6 h,"[2]; female, % iD/g Tumor",7.78 %ID/g
same,tissue uptake at 48 h,"[2]; female, % iD/g Tumor",7.23 %ID/g
CC[C@H](C)[C@@H]([C@@H](CC(=O)N1CCC[C@H]1[C@H](OC)[C@@H](C)C(=O)N[C@H](C)C(O)c1ccccc1)OC)N(C)C(=O)[C@@H](NC(=O)[C@H](C(C)C)N(C)C(=O)OCc1ccc(NC(=O)[C@H](CCCNC(N)=O)NC(=O)[C@@H](NC(=O)CCCCCN2C(=O)CC(SCC[C@@H](N)C(=O)N[C@H](CCCNC(=N)N)C(=O)N[C@H](C)C(=O)Nc3ccc(C(=O)NCCC[C@@H]4C(=O)N[C@@H](CCCNC(=N)N)C(=O)N[C@@H](Cc5ccc6ccccc6c5)C(=O)NCC(=O)N[C@H](Cc5ccc(O)cc5)C(=O)N4C)cc3)C2=O)C(C)C)cc1)C(C)C (some centres unmarked) [^125I-CXCR4-MMAE −2],% iD/g Blood,"[1]; Blood, 1 h p.i., Jurkat xenograft, CB-17 SCID female mice",2.28 % iD/g
same,% iD/g Bone,"[1]; Bone, 1 h p.i., Jurkat xenograft, CB-17 SCID female mice",0.80 % iD/g
same,% iD/g Heart,"[1]; Heart, 1 h p.i., Jurkat xenograft, CB-17 SCID female mice",1.31 % iD/g
same,% iD/g Intestine,"[1]; Intestine, 1 h p.i., Jurkat xenograft, CB-17 SCID female mice",1.13 % iD/g
same,% iD/g Kidney,"[1]; Kidney, 1 h p.i., Jurkat xenograft, CB-17 SCID female mice",18.3 % iD/g
same,% iD/g Liver,"[1]; Liver, 1 h p.i., Jurkat xenograft, CB-17 SCID female mice",27.8 % iD/g
same,% iD/g Lung,"[1]; Lung, 1 h p.i., Jurkat xenograft, CB-17 SCID female mice",3.67 % iD/g
same,% iD/g Muscle,"[1]; Muscle, 1 h p.i., Jurkat xenograft, CB-17 SCID female mice",0.33 % iD/g
same,% iD/g Pancreas,"[1]; Pancreas, 1 h p.i., Jurkat xenograft, CB-17 SCID female mice",0.80 % iD/g
same,% iD/g Spleen,"[1]; Spleen, 1 h p.i., Jurkat xenograft, CB-17 SCID female mice",4.31 % iD/g
same,% iD/g Stomach,"[1]; Stomach, 1 h p.i., Jurkat xenograft, CB-17 SCID female mice",1.85 % iD/g
same,% iD/g Tumor,"[1]; Tumor, 1 h p.i., Jurkat xenograft, CB-17 SCID female mice",2.41 % iD/g
same,Cell-bound [%],[3]; 10 min,1.56 ± 0.78%
same,Internalized [%],[3]; 10 min,2.55 ± 0.34%
same,Cell-bound [%],[3]; 30 min,2.09 ± 0.64%
same,Internalized [%],[3]; 30 min,7.78 ± 0.58%
same,Cell-bound [%],[3]; 60 min,0.73 ± 0.54%
same,Internalized [%],[3]; 60 min,14.6 ± 0.89%
same,Cell-bound [%],[3]; 120 min,0.27 ± 0.35%
same,Internalized [%],[3]; 120 min,27.9 ± 1.14%

# Source: US20250288704A1, “CXCR4-LIGANDS FOR DIAGNOSTIC AND THERAPEUTIC USE AND PRECURSORS THEREOF” (priority 2021, published 2025)
